Assay results reported in paper PMC11604427 (Frontiers in Pharmacology, 2024).

Legend:
[1] = biological target: T1, Human recombinant PKMYT1 enzyme (Homo sapiens, UniProt Q99640); assay: ADP-GLO enzyme inhibition assay; assay type: biochemical; settings: ADP-GLO method
T1 construct: purchased Abcam
T1 sequence (Q99640 1-499): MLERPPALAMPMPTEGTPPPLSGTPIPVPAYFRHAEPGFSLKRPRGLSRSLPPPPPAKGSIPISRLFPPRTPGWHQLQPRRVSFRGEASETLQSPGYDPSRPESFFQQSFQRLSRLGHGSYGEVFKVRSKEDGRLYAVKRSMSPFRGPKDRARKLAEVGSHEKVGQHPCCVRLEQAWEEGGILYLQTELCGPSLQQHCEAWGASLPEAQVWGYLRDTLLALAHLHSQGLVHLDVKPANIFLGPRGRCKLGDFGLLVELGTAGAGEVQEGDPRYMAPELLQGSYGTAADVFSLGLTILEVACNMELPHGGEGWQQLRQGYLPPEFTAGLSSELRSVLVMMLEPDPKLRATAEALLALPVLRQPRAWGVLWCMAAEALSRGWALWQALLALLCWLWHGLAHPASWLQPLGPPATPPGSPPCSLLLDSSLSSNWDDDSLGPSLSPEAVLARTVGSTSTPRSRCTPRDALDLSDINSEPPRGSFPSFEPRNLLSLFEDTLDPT
Description: The ADP-GLO™ kinase assay kit, purchased from Promega Corporation (Madison, WI, United States), included the ADP-GLO reagent, the kinase assay reagent, and ultra-pure ATP and ADP. PKMYT1 enzyme was dissolved in 5 μL of freshly prepared enzyme assay buffer containing 70 mM Hepes, 3 mM MgCl2, 3 mM MnCl2, 50 μg/mL PEG20000, 3 μM sodium orthovanadate, 1.2 mM dithiothreitol, and then injected into 384-well plates. […] The enzymatic reaction was initiated by adding 5 μL of ATP, followed by a 60-min incubation at 30°C. Subsequently, 15 μL of ADP-GLO reagent was added, and the incubation was continued for an additional 40 min at room temperature. Then, 30 μL of kinase detection reagent was introduced, and the samples were incubated for a final 30 min. Luminescence measurements were taken using an Envision plate reader (PerkinElmer). The IC50 value of each tested compound was calculated by GraphPad Prism software.

[2] = biological target: T2, Human recombinant HDAC2 enzyme (Homo sapiens, UniProt Q92769); assay: HDAC2 fluorescence enzyme inhibition assay (Boc-Lys(acetyl)-AMC); assay type: biochemical; settings: fluorescence signal-based method
T2 construct: purchased Abcam
Description: Firstly, a 96-well plate was loaded with a blend comprising 10 μL of HDAC2 enzyme solution and 50 μL of the test compounds at assorted concentrations, followed by incubation at a temperature of 37°C for a duration of 5 min. Subsequently, 10 μL of the fluorescent substrate Boc-Lys (acetyl)-AMC was added and continued for 30 min. Finally, 100 μL of developer containing trypsin and TSA was injected into each well and incubated for 20 min.

T2 sequence (Q92769 whole entry): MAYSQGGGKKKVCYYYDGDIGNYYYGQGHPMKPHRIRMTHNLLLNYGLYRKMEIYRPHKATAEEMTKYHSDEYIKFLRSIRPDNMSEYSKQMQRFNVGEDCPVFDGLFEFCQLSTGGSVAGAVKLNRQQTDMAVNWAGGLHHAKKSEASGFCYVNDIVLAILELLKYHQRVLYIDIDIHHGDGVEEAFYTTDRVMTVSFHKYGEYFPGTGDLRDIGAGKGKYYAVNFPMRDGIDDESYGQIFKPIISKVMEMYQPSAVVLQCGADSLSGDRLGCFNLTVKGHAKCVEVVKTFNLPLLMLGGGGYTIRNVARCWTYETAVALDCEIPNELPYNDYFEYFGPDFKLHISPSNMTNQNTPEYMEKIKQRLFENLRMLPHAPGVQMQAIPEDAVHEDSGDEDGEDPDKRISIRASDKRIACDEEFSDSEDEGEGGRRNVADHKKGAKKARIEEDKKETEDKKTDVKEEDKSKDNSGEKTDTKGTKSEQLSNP

IC50 [1] [nM]	IC50 [2] [nM]	PKMYT1 (IC50, nM) [1]	SMILES
7.78 ± 0.91	4.14 ± 0.52		CCc1nc2c(cc1CCCCCC(=O)NO)c(C(N)=O)c(N)n2-c1c(C)ccc(O)c1C [PKHD-2]
9.26 ± 1.07	5.47 ± 0.66		C=CCc1nc2c(cc1CCCCCC(=O)NO)c(C(N)=O)c(N)n2-c1c(C)ccc(O)c1C [PKHD-3]

Second part, the compound before the results:

SMILES	IC50 [1] [nM]	IC50 [2] [nM]	PKMYT1 (IC50, nM) [1]
CCCCc1nc2c(cc1CCCCCC(=O)NO)c(C(N)=O)c(N)n2-c1c(C)ccc(O)c1C [PKHD-4]	13.6 ± 1.94	7.31 ± 1.12	
O=C(CCCCCCC(=O)Nc1ccccc1)NO [SAHA, Vorinostat, reference compound]			no inhibition
Cc1ccc(O)c(C)c1-n1c(N)c(C(N)=O)c2cc(CCCCCC(=O)NO)c(CCCO)nc21 [PKHD-1]	11.1 ± 1.86	8.64 ± 1.35	
